Drawing on ChEMBL document CHEMBL2074572, “Limited distribution of new quinolone antibacterial agents into brain caused by multiple efflux transporters at the blood-brain barrier” (J Pharmacol Exp Ther, 2000), this text covers Activity for two compounds.

For series [1], the target named is Multidrug resistance-associated protein 1 (Homo sapiens, UniProt P33527). Nature of the series: TP_TRANSPORTER: decrease in intracellular accumulation in HL60 and HL60/ADM cells. The series is classed as functional, cell-based.
For series [2], the target named is P-glycoprotein 1 and 3 (MDR1a/MDR1b) (Mus musculus, UniProt P21447+P06795). Nature of the series: TP_TRANSPORTER: increase in brain concentration in mdr1a/1b(-/-) mouse. The series is classed as functional, organism-based. Particulars: in vivo.

Sequence of Multidrug resistance-associated protein 1 (P33527 whole entry): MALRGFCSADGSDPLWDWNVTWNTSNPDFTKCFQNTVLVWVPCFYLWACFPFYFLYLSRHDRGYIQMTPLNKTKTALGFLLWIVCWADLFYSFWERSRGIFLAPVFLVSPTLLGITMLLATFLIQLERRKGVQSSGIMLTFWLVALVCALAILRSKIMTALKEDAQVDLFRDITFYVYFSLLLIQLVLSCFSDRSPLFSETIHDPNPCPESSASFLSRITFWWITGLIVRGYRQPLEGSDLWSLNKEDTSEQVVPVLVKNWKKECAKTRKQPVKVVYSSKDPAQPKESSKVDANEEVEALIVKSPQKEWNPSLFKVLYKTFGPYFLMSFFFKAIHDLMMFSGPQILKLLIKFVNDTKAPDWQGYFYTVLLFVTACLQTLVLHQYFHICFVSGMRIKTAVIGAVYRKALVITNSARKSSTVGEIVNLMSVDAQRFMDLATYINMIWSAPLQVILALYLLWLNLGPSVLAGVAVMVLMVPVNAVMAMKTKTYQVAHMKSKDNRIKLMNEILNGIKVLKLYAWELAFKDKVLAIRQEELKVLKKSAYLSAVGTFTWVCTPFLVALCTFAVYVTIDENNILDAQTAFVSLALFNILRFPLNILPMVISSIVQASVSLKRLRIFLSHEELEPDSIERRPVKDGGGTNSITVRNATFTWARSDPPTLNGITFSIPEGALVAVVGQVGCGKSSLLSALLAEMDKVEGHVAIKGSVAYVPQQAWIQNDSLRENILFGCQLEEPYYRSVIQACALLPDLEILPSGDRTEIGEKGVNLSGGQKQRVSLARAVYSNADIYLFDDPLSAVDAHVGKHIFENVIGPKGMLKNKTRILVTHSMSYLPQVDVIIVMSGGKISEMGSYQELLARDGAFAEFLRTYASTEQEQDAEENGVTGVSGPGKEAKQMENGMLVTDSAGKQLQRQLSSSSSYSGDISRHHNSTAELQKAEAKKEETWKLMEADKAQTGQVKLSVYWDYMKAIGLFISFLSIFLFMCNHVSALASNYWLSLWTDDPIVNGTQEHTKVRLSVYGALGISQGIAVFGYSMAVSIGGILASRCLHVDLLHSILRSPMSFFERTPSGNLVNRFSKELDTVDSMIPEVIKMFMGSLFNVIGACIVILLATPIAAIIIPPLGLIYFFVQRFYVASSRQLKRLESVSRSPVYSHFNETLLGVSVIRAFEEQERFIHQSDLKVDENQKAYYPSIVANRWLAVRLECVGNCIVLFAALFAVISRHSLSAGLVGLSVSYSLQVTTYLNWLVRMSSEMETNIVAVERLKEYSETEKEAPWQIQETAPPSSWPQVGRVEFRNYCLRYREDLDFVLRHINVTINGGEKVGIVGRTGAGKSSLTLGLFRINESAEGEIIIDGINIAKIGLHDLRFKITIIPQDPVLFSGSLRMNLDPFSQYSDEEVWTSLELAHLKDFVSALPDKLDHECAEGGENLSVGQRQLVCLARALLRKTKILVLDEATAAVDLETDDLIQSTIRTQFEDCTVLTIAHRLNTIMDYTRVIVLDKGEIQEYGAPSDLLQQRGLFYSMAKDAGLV

As to `Cc1c(F)c(N2CCNC(C)C2)cc2c1c(=O)c(C(=O)O)cn2C1CC1` (configuration not stated) [GREPAFLOXACIN], the Activity result in series [1] is “substrate [+]”.
In the case of `C[C@@H]1CN(c2c(F)c(N)c3c(=O)c(C(=O)O)cn(C4CC4)c3c2F)C[C@H](C)N1` [SPARFLOXACIN], the Activity result in series [2] was “substrate [+]”.
